Laboratory results reported in the NIST ThermoML archive (doi:10.1021/je060271a).
Several values for one entry are separate records, joined by “and”; a condition that tells them apart may be missing. Identical values can stand only once.

Conditions: 303.16 K, Liquid, Vibrating tube method

CCCCCC(=O)OCC(COC(=O)CCCCC)(COC(=O)CCCCC)COC(=O)CCCCC [pentaerythritol tetrahexanoate]
Conditions | mass density
291.9 kPa | 988.7 kg/m3
292.2 kPa | 988.5 kg/m3
292.6 kPa | 988.6 kg/m3
292.9 kPa | 988.6 kg/m3
297.1 kPa | 988.4 kg/m3
297.8 kPa | 988.5 kg/m3
298.1 kPa | 988.6 kg/m3
298.5 kPa | 988.5 kg/m3
298.7 kPa | 988.6 kg/m3
299.2 kPa | 988.5 kg/m3
299.3 kPa | 988.6 kg/m3
299.9 kPa | 988.4 kg/m3 and 988.6 kg/m3
300.4 kPa | 988.6 kg/m3
300.7 kPa | 988.6 kg/m3
301.1 kPa | 988.6 kg/m3
301.2 kPa | 988.6 kg/m3
301.6 kPa | 988.6 kg/m3
302 kPa | 988.5 kg/m3
302.1 kPa | 988.5 kg/m3
302.7 kPa | 988.6 kg/m3
303 kPa | 988.5 kg/m3
303.2 kPa | 988.5 kg/m3
303.7 kPa | 988.5 kg/m3
303.9 kPa | 988.6 kg/m3
304.2 kPa | 988.5 kg/m3
304.5 kPa | 988.6 kg/m3
304.7 kPa | 988.6 kg/m3
305.1 kPa | 988.5 kg/m3
306.3 kPa | 988.5 kg/m3
306.6 kPa | 988.6 kg/m3
307 kPa | 988.6 kg/m3
307.3 kPa | 988.6 kg/m3
307.8 kPa | 988.5 kg/m3
307.9 kPa | 988.5 kg/m3
308.2 kPa | 988.5 kg/m3
308.7 kPa | 988.6 kg/m3
309.1 kPa | 988.5 kg/m3
309.4 kPa | 988.6 kg/m3
309.8 kPa | 988.5 kg/m3
310.1 kPa | 988.5 kg/m3
310.8 kPa | 988.5 kg/m3
311 kPa | 988.5 kg/m3
311.3 kPa | 988.6 kg/m3
311.7 kPa | 988.6 kg/m3
311.9 kPa | 988.5 kg/m3
312.2 kPa | 988.6 kg/m3
312.5 kPa | 988.6 kg/m3
313.6 kPa | 988.6 kg/m3
314.6 kPa | 988.6 kg/m3
315.8 kPa | 988.6 kg/m3
316.7 kPa | 988.5 kg/m3
317.1 kPa | 988.4 kg/m3
317.2 kPa | 988.6 kg/m3
317.4 kPa | 988.5 kg/m3
317.9 kPa | 988.5 kg/m3
318.1 kPa | 988.6 kg/m3
318.5 kPa | 988.6 kg/m3
318.6 kPa | 988.6 kg/m3
318.8 kPa | 988.5 kg/m3
319 kPa | 988.5 kg/m3
319.3 kPa | 988.5 kg/m3
319.5 kPa | 988.5 kg/m3
319.8 kPa | 988.5 kg/m3
320.4 kPa | 988.5 kg/m3
320.9 kPa | 988.5 kg/m3
321.2 kPa | 988.5 kg/m3
321.9 kPa | 988.6 kg/m3
322.3 kPa | 988.6 kg/m3
324.7 kPa | 988.5 kg/m3
325.6 kPa | 988.6 kg/m3
326.1 kPa | 988.6 kg/m3
326.6 kPa | 988.4 kg/m3 and 988.6 kg/m3
327 kPa | 988.6 kg/m3
327.1 kPa | 988.6 kg/m3
327.3 kPa | 988.6 kg/m3
327.7 kPa | 988.6 kg/m3
328.4 kPa | 988.5 kg/m3
328.9 kPa | 988.6 kg/m3
329.1 kPa | 988.6 kg/m3
333.2 kPa | 988.6 kg/m3
333.9 kPa | 988.6 kg/m3
339.3 kPa | 988.7 kg/m3
339.7 kPa | 988.6 kg/m3
340.3 kPa | 988.7 kg/m3
341 kPa | 988.6 kg/m3
344.3 kPa | 988.5 kg/m3
344.5 kPa | 988.7 kg/m3
344.7 kPa | 988.6 kg/m3
345.2 kPa | 988.6 kg/m3
345.5 kPa | 988.6 kg/m3
346.2 kPa | 988.5 kg/m3
346.6 kPa | 988.7 kg/m3
346.9 kPa | 988.6 kg/m3
347.3 kPa | 988.5 kg/m3
347.6 kPa | 988.6 kg/m3
348.2 kPa | 988.7 kg/m3
348.7 kPa | 988.6 kg/m3
349.2 kPa | 988.5 kg/m3 and 988.6 kg/m3
349.4 kPa | 988.6 kg/m3
349.9 kPa | 988.5 kg/m3
350.6 kPa | 988.5 kg/m3
350.9 kPa | 988.6 kg/m3
351.5 kPa | 988.7 kg/m3 and 988.6 kg/m3
352 kPa | 988.6 kg/m3
352.8 kPa | 988.6 kg/m3
353.2 kPa | 988.8 kg/m3 and 988.5 kg/m3
353.4 kPa | 988.6 kg/m3
353.5 kPa | 988.6 kg/m3
354.1 kPa | 988.7 kg/m3
354.2 kPa | 988.6 kg/m3
354.6 kPa | 988.6 kg/m3
354.9 kPa | 988.6 kg/m3
358.1 kPa | 988.6 kg/m3
358.4 kPa | 988.7 kg/m3
358.9 kPa | 988.6 kg/m3
359.4 kPa | 988.6 kg/m3
359.8 kPa | 988.6 kg/m3
360.3 kPa | 988.6 kg/m3 and 988.5 kg/m3
364.5 kPa | 988.6 kg/m3
365 kPa | 988.7 kg/m3
365.2 kPa | 988.5 kg/m3
365.9 kPa | 988.7 kg/m3
366.2 kPa | 988.7 kg/m3
366.6 kPa | 988.7 kg/m3
367.3 kPa | 988.8 kg/m3
367.6 kPa | 988.6 kg/m3
368 kPa | 988.6 kg/m3
368.3 kPa | 988.6 kg/m3
368.6 kPa | 988.7 kg/m3
369.5 kPa | 988.6 kg/m3
369.9 kPa | 988.6 kg/m3
370 kPa | 988.5 kg/m3
370.2 kPa | 988.6 kg/m3
371.1 kPa | 988.6 kg/m3
371.3 kPa | 988.6 kg/m3
371.6 kPa | 988.7 kg/m3
372.1 kPa | 988.7 kg/m3
372.5 kPa | 988.5 kg/m3
373 kPa | 988.6 kg/m3
373.5 kPa | 988.7 kg/m3
374.2 kPa | 988.6 kg/m3
374.6 kPa | 988.6 kg/m3
374.9 kPa | 988.6 kg/m3
375.4 kPa | 988.7 kg/m3
